We go through 61 compounds from ChEMBL document CHEMBL4354799, “Exploiting Structural Dynamics To Design Open-Flap Inhibitors of Malarial Aspartic Proteases” (J Med Chem, 2019).

For assay [1], the target named is T1, Plasmepsin 4 (Plasmodium falciparum, UniProt Q17SB2). The assay can be described thus: Inhibition of Plasmodium falciparum plasmepsin 4 by FRET assay.
The target of assay [2] is T2, Plasmepsin II (Plasmodium falciparum, UniProt P46925). The assay can be described thus: Inhibition of Plasmodium falciparum plasmepsin 2 by FRET assay.
T2 sequence (P46925 whole entry): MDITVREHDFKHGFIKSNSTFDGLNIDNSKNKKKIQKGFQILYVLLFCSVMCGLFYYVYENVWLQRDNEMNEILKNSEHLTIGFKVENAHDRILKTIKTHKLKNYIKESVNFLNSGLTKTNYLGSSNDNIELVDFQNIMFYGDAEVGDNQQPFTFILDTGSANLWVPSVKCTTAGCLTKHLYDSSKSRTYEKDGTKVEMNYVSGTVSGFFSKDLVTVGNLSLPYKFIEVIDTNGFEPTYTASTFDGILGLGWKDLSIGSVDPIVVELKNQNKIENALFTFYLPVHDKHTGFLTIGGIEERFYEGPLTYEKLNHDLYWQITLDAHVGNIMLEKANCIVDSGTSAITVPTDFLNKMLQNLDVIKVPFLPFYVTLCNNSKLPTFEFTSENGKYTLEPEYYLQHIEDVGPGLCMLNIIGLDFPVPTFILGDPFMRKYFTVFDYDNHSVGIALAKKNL
Assay [3] deals with T2, Plasmepsin II. The assay can be described thus: Inhibition of Plasmodium falciparum plasmepsin 2 using fluorescently labeled peptide substrate by fluorescence method.
In assay [4] the target is T1, Plasmepsin 4. The assay can be described thus: Inhibition of Plasmodium falciparum plasmepsin 4 using fluorescently labeled peptide substrate by fluorescence method.
Assay [5] addresses T2, Plasmepsin II. The assay can be described thus: Inhibition of Plasmodium falciparum plasmepsin 2 preincubated for 30 mins followed by DABCYL-Glu-Arg-Nle-Phe-Leu-Ser-Phe-Pro-EDANS addition measured every minute for 8 to 15 mins by FRET assay.
Assay [6] addresses T2, Plasmepsin II. The assay can be described thus: Inhibition of Plasmodium falciparum plasmepsin 2 using Dabcyl-ERNIef:LSFP-EDANS as substrate incubated for 40 mins by FRET assay.
The target of assay [7] is T2, Plasmepsin II. The assay can be described thus: Inhibition of Plasmodium falciparum plasmepsin 2 incubated for 10 mins followed by DABCYL-Glu-Arg-Nle-Phe-Leu-Ser-Phe-Pro-EDANS addition and measured after 30 mins by fluorescence method.
Assay [8] concerns the target T2, Plasmepsin II. The assay can be described thus: Inhibition of Plasmodium falciparum plasmepsin 2 using DABCYL-Glu-Arg-Nle-Phe-Leu-Ser-Phe-Pro-EDANS as substrate by FRET assay.
The target of assay [9] is Cathepsin D (Homo sapiens, UniProt P07339). The assay can be described thus: Inhibition of human liver cathepsin D using DABCYL-Glu-Arg-Nle-Phe-Leu-Ser-Phe-Pro-EDANS as substrate by FRET assay.
Chain of Cathepsin D (P07339 65-162 limits assumed): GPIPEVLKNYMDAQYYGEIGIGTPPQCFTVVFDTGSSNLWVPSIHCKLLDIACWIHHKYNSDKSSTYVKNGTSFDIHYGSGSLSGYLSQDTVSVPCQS
Chain of Cathepsin D (P07339 169-412 limits assumed): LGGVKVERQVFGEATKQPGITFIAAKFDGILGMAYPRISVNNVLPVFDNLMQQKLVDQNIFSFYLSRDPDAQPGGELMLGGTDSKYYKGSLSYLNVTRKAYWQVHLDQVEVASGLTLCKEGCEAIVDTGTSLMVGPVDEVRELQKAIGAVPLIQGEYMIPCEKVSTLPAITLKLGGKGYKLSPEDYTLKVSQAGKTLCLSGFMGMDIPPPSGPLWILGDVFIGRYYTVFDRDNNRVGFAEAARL

T1 sequence (Q17SB2 whole entry): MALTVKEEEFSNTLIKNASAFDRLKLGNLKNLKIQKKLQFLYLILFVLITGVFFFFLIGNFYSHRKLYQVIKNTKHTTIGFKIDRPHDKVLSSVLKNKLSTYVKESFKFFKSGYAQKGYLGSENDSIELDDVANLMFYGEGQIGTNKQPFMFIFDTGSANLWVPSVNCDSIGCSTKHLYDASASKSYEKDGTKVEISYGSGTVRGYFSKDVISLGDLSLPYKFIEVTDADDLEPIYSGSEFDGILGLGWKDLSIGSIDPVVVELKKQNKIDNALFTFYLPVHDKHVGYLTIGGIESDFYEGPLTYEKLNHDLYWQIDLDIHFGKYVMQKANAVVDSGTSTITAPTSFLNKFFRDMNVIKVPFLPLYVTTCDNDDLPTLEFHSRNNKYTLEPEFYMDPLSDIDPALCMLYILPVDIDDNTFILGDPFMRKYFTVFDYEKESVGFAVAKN

On to `c1ccc2c(CCOc3cc4c(cc3OCCSc3nc5ccccc5s3)C3CCC4N3)cccc2c1` (centres undefined), for which the concentration for half-maximal inhibition (IC50) in assay [1] stood at 15 µM; in assay [2], 3 µM.
Turning to `CCCCCCCCCCc1ccc(S(=O)(=O)C2C3CCC(N3)C2NCc2ccc3ccccc3c2)cc1` (centres undefined), the half-maximal inhibitory concentration (IC50) in assay [3] turned out to be 0.35 µM; in assay [4] it was 3.19 µM.
On to `CCN(CC)CCc1nnn(-c2ccc(C)cc2)c1-c1ccc(-c2ccc(OC)cc2)cc1`, for which the 50% inhibitory concentration (IC50) in assay [5] was over 200 µM.
As to `CC(=O)N1CC2CC(c3ccc(CCOc4cccc(Cl)c4)cc3)=C(C(=O)N(C)CCc3ccccc3)C(C1)N2` (centres undefined), in [6], the 50% inhibitory concentration (IC50) lay in the range of 0.1 to 10 µM.
`O=S(=O)(c1ccc(CCCCC2CCCCC2)cc1)C1C2CCC(N2)C1NCc1ccc2ccccc2c1` (centres undefined): the half-inhibitory concentration (IC50) in [3] was 0.38 µM; in assay [4] it was 0.76 µM.
On to `CC(=O)N1CC2CC(c3ccc(CCOc4ccccc4Cl)cc3)=C(C(=O)N(C)CCc3ccccc3)C(C1)N2` (centres undefined), for which, in [6], the IC50 lay within 0.1 to 10 µM.
`CCCCCCc1ccc(S(=O)(=O)[C@@H]2[C@H](NCc3cccc(Br)c3)[C@@H]3CC[C@H]2N3)cc1`: the results for the half-maximal inhibitory concentration (IC50) in [3] and in [4] were at most 0.045 µM and 0.01 µM, respectively.
In turn, `O=C(C1=C(c2ccc(CCCOc3ccccc3Cl)cc2)CCNC1)N(Cc1ccccc1Cl)C1CC1` had an IC50 in assay [6] of under 0.1 µM.
With `CCCCCCc1ccc(S(=O)(=O)C2C3CCC(N3)C2NCc2ccc3ccccc3c2)cc1` (centres undefined), the IC50 stood at 0.13 µM in assay [3] and 0.05 µM in [4].
In turn, `CCCCCc1ccc(N(CC2CCC(O)C(F)(F)C2)C(=O)Cc2ccc3ccccc3c2)cc1` (centres undefined) displayed an IC50 in [2] of 7 µM.
For the compound `O=C(Nc1ccc(Cl)c(C(F)(F)F)c1)Nc1cc(Cl)c(Oc2ccc(Cl)cc2)cc1S(=O)(=O)O`, the Ki in assay [7] lay in the range of 0.05 to 0.68 µM.
Consider `O=C(C1=C(c2ccc(CCCOc3cc(F)ccc3Br)cc2)CCNC1)N(Cc1ccccc1Cl)C1CC1`, for which the IC50 in [6] is under 0.1 µM.
Compound `CC(C)(C)c1ccc(C(=O)N(Cc2ccc(-c3ccccc3)cc2)C2CCN(Cc3ccccc3)CC2)cc1` yielded an IC50 in [6] of over 20 µM.
For the compound `NNC(=O)C(c1ccccc1)c1ccccc1`, the IC50 in assay [8] and in assay [9] was 1 to 2.5 µM in each case.
For `O=C(Nc1cc(C(F)(F)F)ccc1Cl)Nc1cc(Cl)ccc1Oc1cc(Cl)c(Cl)cc1S(=O)(=O)O`, the Ki in assay [7] lay within 0.05 to 0.68 µM.
`CC(=O)N1CC2CC(c3ccc(CCOc4ccc(C)cc4C(C)(C)C)cc3)=C(C(=O)N(C)CCc3ccccc3)C(C1)N2` (centres undefined) came in with an IC50 in [6] of 0.1 to 10 µM.
Consider `CC(=O)N1CC2CC(c3ccc(CCOc4ccccc4C(C)C)cc3)=C(C(=O)N(C)CCc3ccccc3)C(C1)N2` (centres undefined), for which the 50% inhibitory concentration (IC50) in assay [6] was in the range of 0.01 to 0.1 µM.
Turning to `CCCCCc1ccc(S(=O)(=O)C2C3CCC(N3)C2NCc2ccc3ccccc3c2)cc1` (centres undefined), the IC50 in [3] was found to be 0.68 µM; in assay [4], 0.24 µM.
`CC(C)CCCN(CCCC(C)C)CC(O)c1cc2c(c3ccccc13)CCCC2` (centres undefined) displayed a concentration for half-maximal inhibition (IC50) in assay [3] of 19 µM.
As to `c1ccc(-c2nnc(SCCOc3cc4c(cc3OCCc3cccc5ccccc35)C3CCC4N3)o2)cc1` (centres undefined), the concentration for half-maximal inhibition (IC50) in assay [2] was 79 µM.
`CCCCCCCCCCCC(=O)N(Cc1ccc(-c2ccccc2)cc1)C1CCN(Cc2ccccc2)CC1`: the IC50 in [6] amounted to 1.8 µM.
Take `CCCCCCCCCc1ccc(S(=O)(=O)C2C3CCC(N3)C2NCc2ccc3ccccc3c2)cc1` (centres undefined): the half-inhibitory concentration (IC50) in [3] stood at 0.15 µM; in [4], 1.36 µM.
`Clc1ccc2sc(SCCCc3cc4c(cc3OCCc3cccc5ccccc35)C3CCC4N3)nc2c1` (centres undefined): the half-maximal inhibitory concentration (IC50) in [1] was determined as 10 µM; in assay [2], 2 µM.
In [7], `O=C(Nc1ccc(Cl)c(C(F)(F)F)c1)Nc1cc(Cl)ccc1Oc1ccc(Cl)cc1S(=O)(=O)O` gave a Ki of 0.05 to 0.68 µM.
For the compound `CCCCCCCCCCCc1ccc(S(=O)(=O)C2C3CCC(N3)C2NCc2ccc3ccccc3c2)cc1` (centres undefined), the 50% inhibitory concentration (IC50) in assay [3] is 1.95 µM; in assay [4], 5.35 µM.
Regarding `O=C(Nc1cc(C(F)(F)F)cc(C(F)(F)F)c1)Nc1c(Oc2ccc(Cl)cc2)ccc(Cl)c1S(=O)(=O)O`, the inhibition constant Ki in assay [7] is 0.05 to 0.68 µM.
With `CCCC(=O)NN`, the IC50 in [8] and in assay [9] was 1 to 2.5 µM throughout.
In turn, `CCCCCN(CCCCC)CC(O)c1cc2c(c3ccccc13)CCCC2` (centres undefined) came in with an IC50 in [3] of 5 µM.
Consider `COc1ccccc1C(=O)NN`, for which the IC50 in assay [8] and in [9] was 1 to 2.5 µM throughout.
For the compound `NNC(=O)c1ccccc1[N+](=O)[O-]`, the IC50 in assay [8] and in assay [9] was 1 to 2.5 µM in each case.
Take `CCCCOc1ccc(C(=O)N(Cc2ccc(-c3ccccc3)cc2)C2CCN(Cc3ccccc3)CC2)cc1`: the half-inhibitory concentration (IC50) in [6] is 1.7 µM.
On the same count and under the same terms, the figure for `CCc1ccc(C(=O)N(Cc2ccc(-c3ccccc3)cc2)C2CCN(Cc3ccccc3)CC2)cc1` is 15.6 µM.
For `c1cc(NNc2ccncc2)ccn1`, the IC50 in assay [8] and in assay [9] was 1 to 2.5 µM throughout.
With `CC(=O)N1CC2CC(c3ccc(CCOc4cc(F)ccc4Br)cc3)=C(C(=O)N(C)CCc3ccccc3)C(C1)N2` (centres undefined), the IC50 in [6] was under 0.01 µM.
Turning to `O=S(=O)(c1ccc(CCCCC2CCCC2)cc1)C1C2CCC(N2)C1NCc1ccc2ccccc2c1` (centres undefined), the 50% inhibitory concentration (IC50) in assay [3] came to 0.19 µM; in assay [4], 0.21 µM.
On to `COc1cc2c(cc1OCCc1cccc3ccccc13)C1CCC2N1` (centres undefined), for which the 50% inhibitory concentration (IC50) in [1] amounted to 81 µM; in [2], 24 µM.
On to `O=C(Nc1ccc(Oc2ccc(Cl)cc2)c(Cl)c1)Nc1cc(C(F)(F)F)c(Cl)cc1S(=O)(=O)O`, for which the inhibition constant (Ki) in [7] lay in the range of 0.05 to 0.68 µM.
In [6], `CC(=O)N1CC2CC(c3ccc(CCOc4cccc(Br)c4)cc3)=C(C(=O)N(C)CCc3ccccc3)C(C1)N2` (centres undefined) came in with an IC50 of 0.01 to 0.1 µM.
Same read-out and setting: the figure for `COc1cccc(OCCc2ccc(C3=C(C(=O)N(C)CCc4ccccc4)C4CN(C(C)=O)CC(C3)N4)cc2)c1` (centres undefined) is 0.01 to 0.1 µM.
Same read-out and setting: for `CC(=O)N1CC2CC(c3ccc(CCOc4cc(Cl)cc(Cl)c4)cc3)=C(C(=O)N(C)CCc3ccccc3)C(C1)N2` (centres undefined) the value was 0.01 to 0.1 µM; for `CC(=O)N1CC2CC(c3ccc(CCOc4ccccc4C(C)(C)C)cc3)=C(C(=O)N(C)CCc3ccccc3)C(C1)N2` (centres undefined), 0.01 to 0.1 µM.
Same read-out and setting: for `CC(=O)N1CC2CC(c3ccc(CCOc4cccc(OC(F)(F)F)c4)cc3)=C(C(=O)N(C)CCc3ccccc3)C(C1)N2` (centres undefined) the value was 0.01 to 0.1 µM.
For the compound `CCCCCCCCc1ccc(S(=O)(=O)C2C3CCC(N3)C2NCc2ccc3ccccc3c2)cc1` (centres undefined), the IC50 in assay [3] turned out to be 0.07 µM; in assay [4] it was 0.43 µM.
In the case of `O=C(Nc1ccc(Oc2ccc(Cl)cc2)c(Cl)c1)Nc1cc(Cl)c(Cl)cc1S(=O)(=O)O`, in assay [7], the Ki is 0.05 to 0.68 µM.
Same read-out and setting: for `O=C(Nc1ccc(Cl)c(Cl)c1)Nc1cc(Cl)c(Oc2ccc(Cl)cc2)cc1S(=O)(=O)O` the value was 0.05 to 0.68 µM.
`CC(=O)N1CC2CC(c3ccc(CCOc4cc(Cl)ccc4Cl)cc3)=C(C(=O)N(C)CCc3ccccc3)C(C1)N2` (centres undefined) yielded a 50% inhibitory concentration (IC50) in assay [6] of 0.01 to 0.1 µM.
For `CCCCc1ccc(S(=O)(=O)C2C3CCC(N3)C2NCc2ccc3ccccc3c2)cc1` (centres undefined), the concentration for half-maximal inhibition (IC50) in assay [3] came out at 4.19 µM; in assay [4] it was 1.48 µM.
Taken in the same sequence, the figures for `O=S(=O)(c1ccc(CCCCC2CCC2)cc1)C1C2CCC(N2)C1NCc1ccc2ccccc2c1` (centres undefined) were 0.17 µM and 0.18 µM.
For the compound `O=C(Nc1ccc(Cl)c(Cl)c1)Nc1cc(Cl)ccc1Oc1cc(Cl)c(Cl)cc1S(=O)(=O)O`, in assay [7], the Ki lay in the range of 0.05 to 0.68 µM.
In turn, `CC(=O)N1CC2CC(c3ccc(CCOc4ccc(C(C)(C)C)cc4C)cc3)=C(C(=O)N(C)CCc3ccccc3)C(C1)N2` (centres undefined) gave a concentration for half-maximal inhibition (IC50) in assay [6] of 0.01 to 0.1 µM.
In [5], `CCCCCc1ccc(Cn2nnc(CCN(CC)CC)c2-c2ccc(-c3ccc(OC)cc3)cc2)cc1` yielded an IC50 of 5.2 µM.
Same read-out and setting: for `CCCCCc1ccc(-n2nnc(CCN(CC)CC)c2-c2ccc(-c3ccc(OC)cc3)cc2)c(Cl)c1` the value was 0.6 µM.
`Cc1ccc(C)c(OCCCc2ccc(C3=C(C(=O)N(Cc4ccccc4Cl)C4CC4)CNCC3)cc2)c1C` yielded an IC50 in assay [6] of 0.1 to 10 µM.
Regarding `CCCCCc1ccc(-n2nnc(CCN(CC)CC)c2-c2ccc(-c3ccc(OC)cc3)cc2)cc1`, in assay [5], it took 0.6 µM to reach half-maximal inhibition (IC50).
Consider `CCCCCc1ccc(C(=O)N(Cc2ccc(-c3ccccc3)cc2)C2CCN(Cc3ccccc3)CC2)cc1`, for which, in assay [6], the concentration for half-maximal inhibition (IC50) lay in the range of 0.07 to 0.09 µM.
Consider `O=C(Nc1cccc(C(F)(F)F)c1)Nc1ccc(Oc2ccc(Cl)cc2Cl)cc1S(=O)(=O)O`, for which the inhibitory constant (Ki) in assay [7] was 0.05 to 0.68 µM.
For `CC(C)CCCCc1ccc(S(=O)(=O)C2C3CCC(N3)C2NCc2ccc3ccccc3c2)cc1` (centres undefined), the IC50 in assay [3] was 0.03 µM; in [4] it was 0.09 µM.
In the case of `O=C(C1=C(c2ccc(CCCOc3c(F)ccc(F)c3F)cc2)CCNC1)N(Cc1ccccc1Cl)C1CC1`, the half-maximal inhibitory concentration (IC50) in assay [6] was in the range of 0.1 to 10 µM.
Take `CCCCCCCc1ccc(S(=O)(=O)C2C3CCC(N3)C2NCc2ccc3ccccc3c2)cc1` (centres undefined): the IC50 in assay [3] was determined as 0.05 µM; in assay [4], 0.21 µM.
With `c1ccc2c(CCOc3cc4c(cc3CCCSc3nc5ccccc5s3)C3CCC4N3)cccc2c1` (centres undefined), the IC50 was 33 µM in assay [1] and 4 µM in [2].
With `c1ccc(NNc2ccccc2)cc1` [HYDRAZOBENZENE], the IC50 in assay [8] and in assay [9] was 1 to 2.5 µM in each case.
